Measurements from a compilation of properties of binary mixtures (doi:10.1016/j.molliq.2021.118139).

Assay: xn = mol fraction of the nth substance listed
Conditions: 100 kPa

**Q.** Which results are given for CCCC[N+](CCCC)(CCCC)CCCC.[Cl-] + Oc1ccccc1?
**A.** electrical conductivity (293.15 K, x1 = 0.1667): 0.0802 S/m; viscosity (293.15 K, x1 = 0.167): 91.3 mPa·s; electrical conductivity (303.15 K, x1 = 0.1667): 0.117 S/m; viscosity (303.15 K, x1 = 0.167): 66.4 mPa·s; electrical conductivity (313.15 K, x1 = 0.1667): 0.167 S/m; viscosity (313.15 K, x1 = 0.167): 49.2 mPa·s; electrical conductivity (323.15 K, x1 = 0.1667): 0.232 S/m; electrical conductivity (333.15 K, x1 = 0.1667): 0.317 S/m; viscosity (333.15 K, x1 = 0.167): 28.6 mPa·s

**Q.** Which results are given for CC[N+](CC)(CC)CC.[Cl-] + OCCOCCOCCO?
**A.** electrical conductivity (293.15 K, x1 = 0.1667): 0.16 S/m; viscosity (293.15 K, x1 = 0.1667): 80 mPa·s; electrical conductivity (293.15 K, x1 = 0.25): 0.194 S/m; viscosity (293.15 K, x1 = 0.25): 117 mPa·s; electrical conductivity (303.15 K, x1 = 0.1667): 0.226 S/m; viscosity (303.15 K, x1 = 0.1667): 55.9 mPa·s; electrical conductivity (303.15 K, x1 = 0.25): 0.276 S/m; viscosity (303.15 K, x1 = 0.25): 77 mPa·s; electrical conductivity (313.15 K, x1 = 0.1667): 0.313 S/m; viscosity (313.15 K, x1 = 0.1667): 40 mPa·s; electrical conductivity (313.15 K, x1 = 0.25): 0.384 S/m; viscosity (313.15 K, x1 = 0.25): 52.1 mPa·s; electrical conductivity (323.15 K, x1 = 0.1667): 0.424 S/m; viscosity (323.15 K, x1 = 0.1667): 29.2 mPa·s; electrical conductivity (323.15 K, x1 = 0.25): 0.524 S/m; viscosity (323.15 K, x1 = 0.25): 36.1 mPa·s; electrical conductivity (333.15 K, x1 = 0.1667): 0.564 S/m; viscosity (333.15 K, x1 = 0.1667): 21.7 mPa·s; electrical conductivity (333.15 K, x1 = 0.25): 0.702 S/m; viscosity (333.15 K, x1 = 0.25): 25.6 mPa·s
